Measurements taken from US7566712B2, “Biaryl piperazinyl-pyridine analogues” (Neurogen Corporation, priority 2003, dated 2009).

These compounds were tested against T1, human capsaicin receptor (Homo sapiens, UniProt Q8NER1) (assay: Calcium mobilization assay, determination of antagonist activity (Example 6)). Details: determined as described in Example 6 (calcium mobilization, antagonist activity); Table II.
T1 construct: pBK-CMV expression construct encoding the full length human capsaicin receptor; expressed in transfected cells
Assay type: cell-based
Outline: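 HEK293 clonal lines stably expressing full-length human capsaicin receptor, loaded with Fluo-3 AM in KRH buffer pH 7.4, 1–2 h at 37 °C. Compounds (1–5 μM final) preincubated 0.5–6 h at room temperature, then capsaicin at its EC50 added. FLIPR/Fluoroskan calcium signal; IC50 as 50% decrease of capsaicin response.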

T1 sequence (Q8NER1 whole entry): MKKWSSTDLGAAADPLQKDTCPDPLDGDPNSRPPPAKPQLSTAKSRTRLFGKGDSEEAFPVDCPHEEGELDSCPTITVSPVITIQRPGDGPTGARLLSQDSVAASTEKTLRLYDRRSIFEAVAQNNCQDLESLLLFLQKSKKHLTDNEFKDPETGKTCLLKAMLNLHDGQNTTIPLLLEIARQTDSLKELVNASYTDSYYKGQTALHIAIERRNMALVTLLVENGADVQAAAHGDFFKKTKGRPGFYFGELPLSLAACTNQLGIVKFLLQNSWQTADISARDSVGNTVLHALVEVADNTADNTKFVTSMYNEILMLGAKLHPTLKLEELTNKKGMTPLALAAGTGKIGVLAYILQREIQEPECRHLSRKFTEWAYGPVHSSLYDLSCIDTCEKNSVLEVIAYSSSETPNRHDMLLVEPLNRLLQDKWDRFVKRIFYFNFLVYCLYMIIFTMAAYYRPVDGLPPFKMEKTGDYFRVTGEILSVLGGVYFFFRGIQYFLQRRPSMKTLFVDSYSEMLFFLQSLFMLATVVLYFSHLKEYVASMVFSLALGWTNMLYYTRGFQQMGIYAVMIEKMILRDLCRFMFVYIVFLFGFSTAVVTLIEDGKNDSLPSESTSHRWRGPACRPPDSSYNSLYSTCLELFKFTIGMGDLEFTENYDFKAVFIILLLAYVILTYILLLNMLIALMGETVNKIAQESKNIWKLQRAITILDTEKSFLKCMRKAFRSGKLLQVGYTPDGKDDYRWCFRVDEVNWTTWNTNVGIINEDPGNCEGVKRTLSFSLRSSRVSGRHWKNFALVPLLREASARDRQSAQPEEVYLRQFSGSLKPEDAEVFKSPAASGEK

| IC50 | SMILES |
| --- | --- |
| ≤ 1000 nM | Cc1cc(-c2cc(N3CCN(c4ncccc4C(F)(F)F)CC3)nc(N(C)C3CC3)n2)ccc1F [Example 736, N-cyclopropyl-4-(4-fluoro-3-methylphenyl)-N-methyl-6-{4-[3-(trifluoromethyl)pyridin-2-yl]piperazin-1-yl}pyrimidin-2-amine] |
| ≤ 1000 nM | COCCN(C)c1nc(-c2ccc(F)c(C)c2)cc(N2CCN(c3ncccc3C(F)(F)F)CC2)n1 [Example 737, 4-(4-fluoro-3-methylphenyl)-N-(2-methoxyethyl)-N-methyl-6-{4-[3-(trifluoromethyl)pyridin-2-yl]piperazin-1-yl}pyrimid in-2-amine] |
| ≤ 1000 nM | CCN(C)c1nc(-c2ccc(F)c(C)c2)cc(N2CCN(c3ncccc3C(F)(F)F)CC2)n1 [Example 738, N-ethyl-4-(4-fluoro-3-methylphenyl)-N-methyl-6-{4-[3-(trifluoromethyl)pyridin-2-yl]piperazin-1-yl)pyrimidin-2-amine] |
| ≤ 1000 nM | Cc1cc(-c2cc(N3CCN(c4ncccc4C(F)(F)F)CC3)nc(N3C(C)C=CC3C)n2)ccc1F (stereo not drawn) [Example 739, 2-(2,5-dimethyl-2,5-dihydro-1H-pyrrol-1-yl)-4-(4-fluoro-3-methylphenyl)-6-{4-[3-(trifluoromethyl)pyridin-2-yl]piperazin-1-yl}pyrimidine] |
| ≤ 1000 nM | CC1CC(=O)N1c1nc(-c2ccc(F)c(Cl)c2)cc(N2CCN(c3ncccc3C(F)(F)F)CC2)n1 (stereo not drawn) [Example 740, 1-(4-(3-chloro-4-fluorophenyl)-6-{4-[3-(trifluoromethyl)pyridin-2-yl]piperazin-1-yl}pyrimidin-2-yl)-4-methylazetidin-2-one] |
| ≤ 1000 nM | CC1CCCCN1c1nc(-c2ccc(F)c(Cl)c2)cc(N2CCN(c3ncccc3Cl)C[C@H]2C)n1 (stereo partly drawn) [Example 741, 4-(3-chloro-4-fluorophenyl)-6-[(2R)-4-(3-chloropyridin-2-yl)-2-methylpiperazin-1-yl]-2-(2-methytpiperidin-1-yl)pyrimidine] |
| ≤ 1000 nM | C[C@@H]1CN(c2ncccc2Cl)CCN1c1cc(-c2ccc(F)c(Cl)c2)nc(N2CCOC(C)(C)C2)n1 [Example 742, 4-{4-(3-chloro-4-fluorophenyl)-6-[(2R)-4-(3-chloropyridin-2-yl)-2-methylpiperazin-1-yl]pyrimidin-2-yl}-2,2-dimethylmorpholine] |
| ≤ 1000 nM | Cc1cc(-c2cc(N3CCN(c4ncccc4Cl)CC3)nc(N3CCOC(C)(C)C3)n2)ccc1F [Example 743, 4-{4-[4-(3-chloropyridin-2-yl)piperazin-1-yl]-6-(4-fluoro-3-methylphenyl)pyrimidin-2-yl]-2,2-dimethylmorpholine] |
| ≤ 1000 nM | Cc1cc(-c2cc(N3CCN(c4ncccc4Cl)CC3)nc(N3CCCCC3C)n2)ccc1F (stereo not drawn) [Example 744, 4-[4-(3-chloropyridin-2-yl)piperazin-1-yl]-6-(4-fluoro-3-methylphenyl)-2-(2-methylpiperidin-1-yl)pyrimidine] |
| ≤ 1000 nM | Cc1cc(-c2cc(N3CCN(c4ncccc4Cl)C[C@H]3C)nc(N3CCCCC3C)n2)ccc1F (stereo partly drawn) [Example 745, 4-[(2R)-4-(3-chloropyridin-2-yl)-2-methylpiperazin-1-yl]-6-(4-fluoro-3-methylphenyl)-2-(2-methylpiperidin-1-yl)pyrimidine] |
| ≤ 1000 nM | CC1CCN1c1nc(-c2ccc(F)c(Cl)c2)cc(N2CCN(c3ncccc3C(F)(F)F)CC2)n1 (stereo not drawn) [Example 746, 4-(3-ohloro-4-fluorophenyl)-2-(2-methylazetidin-1-yl)-6-{4-[3-(trifluoromethyl)pyridin-2-yl]piperazin-1-yl}pyrimidine] |
| ≤ 1000 nM | O=C1CCN1c1nc(-c2ccc(F)c(Cl)c2)cc(N2CCN(c3ncccc3C(F)(F)F)CC2)n1 [Example 747, 1-(4-(3-chloro-4-fluorophenyl)-6-{4-(3-(trifluoromethyl)pyridin-2-yl]piperazin-1-yl}pyrimidin-2-yl)azetidin-2-one] |
| ≤ 1000 nM | CC1CCCN1c1nc(-c2ccc(F)c(F)c2)cc(N2CCN(c3ncccc3F)CC2)n1 (stereo not drawn) [Example 748, 4-(3,4-difluorophenyl)-6-[4-(3-fluoropyridin-2-yl)piperazin-1-yl]-2-(2-methylpyrrolidin-1-yl)pyrimidine] |
| ≤ 1000 nM | CC1CCCN1c1nc(-c2ccc(F)cc2)cc(N2CCN(c3ncccc3F)CC2)n1 (stereo not drawn) [Example 749, 4-(4-fluorophenyl)-6-[4-(3-fluoropyridin-2-yl)piperazin-1-yl]-2-(2-methylpyrrolidin-1-yl)pyrimidine] |
| ≤ 1000 nM | OCCN1CCN(c2nc(-c3ccc(F)c(Cl)c3)cc(N3CCN(c4ncccc4C(F)(F)F)CC3)n2)CC1 [Example 750, 2-[4-(4-(3-chloro-4-fluorophenyl)-6-{4-[3-(trifluoromethyl)pyridin-2-yl]piperazin-1-yl}pyrimidin-2-yl)piperazin-1-yl]ethanol] |
| ≤ 1000 nM | CC1CCC(C)N1c1nc(-c2ccc(F)c(Cl)c2)cc(N2CCN(c3ncccc3Cl)CC2)n1 (stereo not drawn) [Example 751, 4-(3-chloro-4-fluorophenyl)-6-[4-(3-chloropyridin-2-yl)piperazin-1-yl]-2-(2,5-dimethylpyrrolidin-1-yl)pyrimidine] |
| ≤ 1000 nM | CC1CCC(C)N1c1nc(-c2ccc(F)c(Cl)c2)cc(N2CCN(c3ncccc3Cl)C[C@H]2C)n1 (stereo partly drawn) [Example 752, 4-(3-chloro-4-fluorophenyl)-6-[(2R)-4-(3-chloropyridin-2-yl)-2-methylpiperazin-1-yl]-2-(2,5-dimethylpyrrolidin-1-yl)pyrimidine] |
| ≤ 1000 nM | Cc1cc(-c2cc(N3CCN(c4ncccc4C(F)(F)F)C[C@H]3C)nc(N3CCCC3)n2)ccc1F [Example 753, 4-(4-fluoro-3-methylphenyl)-6-{(2R)-2-methyl-4-[3-(trifluoromethyl)pyridin-2-yl]piperazin-1-yl}-2-pyrrolidin-1-ylpyrimidine] |
| ≤ 1000 nM | Cc1cc(-c2cc(N3CCN(c4ncccc4C(F)(F)F)C[C@H]3C)nc(N3CCCC3C)n2)ccc1F (stereo partly drawn) [Example 754, 4-(4-fluoro-3-methyiphenyl)-2-(2-methylpyrrolidin-1-yl)-6-{(2R)-2-methyt-4-[3-(trifluoromethyl)pyridin-2-yl]piperazin-1-yl}pyrimidine] |
| ≤ 1000 nM | Cc1cc(-c2cc(N3CCN(c4ncccc4C(F)(F)F)C[C@H]3C)nc(N3C(C)CCC3C)n2)ccc1F (stereo partly drawn) [Example 755, 2-(2,5-dimethylpyrrolidin-1-yl)-4-(4-fluoro-3-methylphenyl)-6-{(2R)-2-methyl-4-[3-(trifluoromethyl)pyridin-2-yl]piperazin-1-yl}pyrimidine] |
| ≤ 1000 nM | Cc1cc(-c2cc(N3CCN(c4ncccc4C(F)(F)F)CC3)nc(N3CCC3C)n2)ccc1F (stereo not drawn) [Example 756, 4-(4-fluoro-3-methylphenyl)-2-(2-methylazetidin-1-yl)-6-{4-[3-(trifluoromethyl)pyridin-2-yl]piperazin-1-yl}pyrimidine] |
| ≤ 1000 nM | CCC(C)N(C)c1nc(-c2ccc(F)c(C)c2)cc(N2CCN(c3ncccc3C(F)(F)F)CC2)n1 (stereo not drawn) [Example 757, N-(sec-butyl)-4-(4-fluoro-3-methylphenyl)-N-methyl-6-{4-[3-(trifluoromethyl)pyridin-2-yl]piperazin-1-yl}pyrimidin-2-amine] |
| ≤ 1000 nM | CC(CO)N(C)c1nc(-c2ccc(F)c(Cl)c2)cc(N2CCN(c3ncccc3C(F)(F)F)CC2)n1 (stereo not drawn) [Example 758, 2-[(4-(3-chloro-4-fluorophenyl)-6-{4-[3-(trifluoromethyl)pyridin-2-yl]piperazin-1-yl}pyrimidin-2-yl)(methyl)amino]propan-1-ol] |
| ≤ 1000 nM | Cc1cc(-c2cc(N3CCN(c4ncccc4C(F)(F)F)C[C@H]3C)nc(N3CCCCC3)n2)ccc1F [Example 759, 4-(4-fluoro-3-methylphenyl)-6-{(2R)-2-methyl-4-[3-(trifluoromethyl)pyridin-2-yl]piperazin-1-yl}-2-piperidin-1-ylpyrimidine] |
| ≤ 1000 nM | COC[C@@H]1CCCN1c1nc(-c2ccc(F)c(C)c2)cc(N2CCN(c3ncccc3C(F)(F)F)C[C@H]2C)n1 [Example 760, 4-(4-fluoro-3-methylphenyl)-2-[(2S)-2-(methoxymethyl)pyrrolidin-1-yl]-6-{(2R)-2-methyl-4-[3-(trifluoromethyl)pyridin-2-yl]piperazin-1-yl}pyrimidine] |
| ≤ 1000 nM | COC[C@H]1CCCN1c1nc(-c2ccc(F)c(C)c2)cc(N2CCN(c3ncccc3C(F)(F)F)C[C@H]2C)n1 [Example 761, 4-(4-fluoro-3-methylphenyl)-2-[(2R)-2-(methoxymethyl)pyrrolidin-1-yl]-6-{(2R)-2-methyl-4-[3-(trifluoromethyl)pyridin-2-yl]piperazin-1-yl}pyrimidine] |
| ≤ 1000 nM | Cc1cc(-c2cc(N3CCN(c4ncccc4C(F)(F)F)C[C@H]3C)nc(N(C)C(C)C)n2)ccc1F [Example 762, 4-(4-fluoro-3-methylphenyl)-N-isopropyl-N-methyl-6-{(2R)-2-methyl-4-[3-(trifluoromethyl)pyridin-2-yl]piperazin-1-yl}pyrimidin-2-amine] |
| ≤ 1000 nM | C[C@@H]1CN(c2ncccc2C(F)(F)F)CCN1c1cc(-c2ccc(F)c(Cl)c2)nc(N2CCCC2)n1 [Example 763, 4-(3-chloro-4-fluorophenyl)-6-{(2R)-2-methyl-4-[3-(trifluoromethyl)pyridin-2-yl]piperazin-1-yl}-2-pyrrolidin-1-ylpyrimidine] |
| ≤ 1000 nM | CC1CCCN1c1nc(-c2ccc(F)c(Cl)c2)cc(N2CCN(c3ncccc3C(F)(F)F)C[C@H]2C)n1 (stereo partly drawn) [Example 764, 4-(3-chloro-4-fluorophenyl)-2-(2-methylpyrrolidin-1-yl)-6-{(2R)-2-methyl-4-[3-(trifluoromethyl)pyridin-2-yl]piperazin-1-yl}pyrimidine] |
| ≤ 1000 nM | C[C@@H]1CN(c2ncccc2C(F)(F)F)CCN1c1cc(-c2ccc(F)c(Cl)c2)nc(N2CCCCC2)n1 [Example 765, 4-(3-chloro-4-fluorophenyl)-6-{(2R)-2-methyt-4-[3-(trifluoromethyl)pyridin-2-yl]piperazin-1-yl}-2-piperidin-1-ylpyrimidine] |
